The results in this text go back to patent US20250011878A1, “METHOD TO DETECT RNA BIOMARKERS” (ITALFARMACO SPA, priority 2021, published 2025).

The target of this experiment is T1, HDAC6 (Mus musculus, UniProt Q9Z2V5).
T1 construct: Spleens were collected and total splenocytes suspension was prepared; from tissue; host or cells: spleen (splenocytes) of BALB/c mice bearing CT26 tumors
T1 sequence (Q9Z2V5 1-1149): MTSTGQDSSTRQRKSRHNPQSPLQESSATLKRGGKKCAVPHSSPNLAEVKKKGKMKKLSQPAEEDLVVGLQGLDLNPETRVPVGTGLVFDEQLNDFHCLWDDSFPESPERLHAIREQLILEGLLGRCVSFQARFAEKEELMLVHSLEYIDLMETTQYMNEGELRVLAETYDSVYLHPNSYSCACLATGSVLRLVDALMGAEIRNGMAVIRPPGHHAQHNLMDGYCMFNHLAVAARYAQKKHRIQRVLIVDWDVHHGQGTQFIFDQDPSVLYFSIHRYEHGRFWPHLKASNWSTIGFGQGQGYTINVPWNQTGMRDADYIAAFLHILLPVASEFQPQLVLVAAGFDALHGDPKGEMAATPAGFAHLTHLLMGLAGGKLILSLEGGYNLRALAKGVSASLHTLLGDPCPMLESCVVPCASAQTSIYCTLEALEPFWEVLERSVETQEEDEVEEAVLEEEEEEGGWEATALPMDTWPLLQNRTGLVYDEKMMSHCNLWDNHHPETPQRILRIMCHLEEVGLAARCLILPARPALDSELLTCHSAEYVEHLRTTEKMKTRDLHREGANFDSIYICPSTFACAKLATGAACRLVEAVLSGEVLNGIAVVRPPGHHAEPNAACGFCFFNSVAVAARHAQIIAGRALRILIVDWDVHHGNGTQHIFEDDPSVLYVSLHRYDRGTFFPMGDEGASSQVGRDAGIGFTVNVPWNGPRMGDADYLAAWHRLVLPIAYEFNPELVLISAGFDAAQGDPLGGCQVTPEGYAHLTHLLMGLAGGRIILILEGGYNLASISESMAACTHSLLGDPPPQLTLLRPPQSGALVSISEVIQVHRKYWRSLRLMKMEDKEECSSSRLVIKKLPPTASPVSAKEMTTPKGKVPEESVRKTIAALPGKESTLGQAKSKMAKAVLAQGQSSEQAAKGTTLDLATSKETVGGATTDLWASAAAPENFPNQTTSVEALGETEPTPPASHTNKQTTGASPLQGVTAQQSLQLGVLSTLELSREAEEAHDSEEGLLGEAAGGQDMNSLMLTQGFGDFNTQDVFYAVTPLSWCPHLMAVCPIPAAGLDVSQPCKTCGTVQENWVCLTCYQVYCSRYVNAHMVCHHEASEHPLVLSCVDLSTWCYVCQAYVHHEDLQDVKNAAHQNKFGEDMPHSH
The experiment can be described thus: Target engagement: tubulin acetylation in spleen of CT26 tumor bearing mice (western blot). Format: in vivo, BALB/c mice. The note with it: 50 mpk os, 8 administrations (Table 9). As to the method:
Adult BALB/c mice were injected s.c. with 1×10^6 CT26 tumor cells (diluted to 100 μl with phosphate buffered saline) and treated with anti-PD1 or ITF3756 when the tumor volume reached 75-100 mm^3, to explore the modulation of genes in the tumor microenvironment by RNAseq. Since ITF3756 acts on the PD-1/PD-L1 axis, this approach allows the identification of genes specific and common to both treatments. The overall schedule is described in Table 9.
Whole cell extracts were obtained by lysing mice spleens with Triton Buffer (50Mm Tris-HCl ph 7.5, 250 mM NaCl, 50 mM NaF, 1 mM EDTA pH 8, 0.1% Triton), supplemented with protease and phosphatase inhibitors (Roche, Germany). Proteins were separated by SDS-PAGE, transferred onto PVDF membranes and blocked with PBS-T (Phosphate-buffared saline and 0.1% Tween-20 containing 5% non-fat dry milk for one hour at room temperature (RT). The incubation with primary antibodies was performed for two hours at RT, followed by incubation with the appropriate horseradish peroxidase-conjugated secondary antibody. Detection was performed with ECL Western Blot Reagent (Amerscham). The antibodies used were: mouse anti acetylated tubulin (Sigma, T6793), mouse anti tubulin (Sigma, T6074), goat anti-mouse IgG (H+L)-HRP conjugate (Bio-Rad, 1706516).
Densitometry analysis was performed using ImageJ software. […]
To ascertain HDAC6 inhibition by ITF3756, the spleen of the animals were collected at all sacrifice time points (1 hour, 4 hours, 18 hours and 24 hours). Tubulin acetylation and total tubulin were detected by western blotting.
Tumor bearing animals were sacrificed at various time points after the last administration. Spleens were collected and total splenocytes suspension was prepared. Pelleted cells were lysed to obtain a total protein extract […] by electrophoresis. Tubulin and acetyl-tubulin were detected after western blotting using specific antibodies.
(In western blotting, separated proteins are transferred to a membrane and probed.)

Turning to `O=C(NO)c1ccc(Cn2nnnc2-c2cccs2)cc1` [ITF3756, N-hydroxy-4-((5-(thiophen-2-yl)-1 H-tetrazol-1-yl)methyl)benzamide], the “tubulin acetylation in spleen” value (1 hour after the last treatment) is “strong increase”; the “tubulin acetylation in spleen” value (4 hours after the last treatment) is “maintained until 4 hours”; the “tubulin acetylation in spleen” value (18 hours after the last treatment) was “still high and consistent”; the “tubulin acetylation in spleen” value (24 hours after the last treatment) was “still detectable, but not in all the animals analysed”.
